What was measured:
JAK2 kinase domain (JH1) = JAK2 kinase domain (JH1) (Homo sapiens (Human), UniProt O60674); assay: JAK2 Radioactive Kinase Assay; type: biochemical; settings: compound at 10 μM; ATP at 10 μM; substrate poly[Glu:Tyr](4:1)
Experimental: (§1) Peptide substrate, [KKSRGDYMTMQIG], (20 μM) was prepared in reaction buffer (20 mM Hepes pH 7.5, 10 mM MgCl2, 1 mM EGTA, 0.02% Brij35, 0.02 mg/mL BSA, 0.1 mM […], 2 mM DTT, 1% DMSO). TYK2 (Invitrogen) kinase was added, followed by compounds in DMSO. ^33PATP was added to initiate the reaction in ATP at 10 μM. The kinase reaction was incubated for 120 min at room temp and reactions were spotted onto P81 ion exchange paper (Whatman #3698-915), and then washed extensively in 0.75% phosphoric acid, prior to reading the radioactivity counts. For JAK2 (Invitrogen) kinase assay the peptide substrate poly[Glu:Tyr](4:1), 0.2 mg/ml was used, in the reaction carried out the same as for TYK2.
(§2) The TYK2 and JAK2 radioactive kinase assay measures the percent inhibition at the TYK2 kinase domain (JH1) and the percent inhibition at the JAK2 kinase domain (JH1). Results of the assay are expressed as percent inhibition at 10 μM.

TYK2 kinase domain (JH1) = TYK2 kinase domain (JH1) (Homo sapiens (Human), UniProt P29597); assay: TYK2 Radioactive Kinase Assay; type: biochemical; settings: compound at 10 μM; ATP at 10 μM; 120 min at room temp
TYK2 kinase domain (JH1), sequence (P29597 897-1176): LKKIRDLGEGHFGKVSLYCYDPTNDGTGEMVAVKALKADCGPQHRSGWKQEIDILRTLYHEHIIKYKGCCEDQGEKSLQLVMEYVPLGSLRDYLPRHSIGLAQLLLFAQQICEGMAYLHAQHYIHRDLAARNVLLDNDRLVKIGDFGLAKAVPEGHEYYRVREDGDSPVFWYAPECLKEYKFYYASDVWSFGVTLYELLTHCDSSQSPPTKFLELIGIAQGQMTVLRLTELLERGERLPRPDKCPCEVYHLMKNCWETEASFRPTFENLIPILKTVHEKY
Experimental: as §1, §2

[1] = target: human TYK2 (JH2domain-pseudokinase) (Homo sapiens (Human), UniProt P29597); assay: TYK2 JH2 Domain Binding Assay (KINOMEscan); settings: 11-point 3-fold dilution, top concentration 30,000 nM, duplicate
human TYK2 (JH2domain-pseudokinase), sequence (P29597 556-888): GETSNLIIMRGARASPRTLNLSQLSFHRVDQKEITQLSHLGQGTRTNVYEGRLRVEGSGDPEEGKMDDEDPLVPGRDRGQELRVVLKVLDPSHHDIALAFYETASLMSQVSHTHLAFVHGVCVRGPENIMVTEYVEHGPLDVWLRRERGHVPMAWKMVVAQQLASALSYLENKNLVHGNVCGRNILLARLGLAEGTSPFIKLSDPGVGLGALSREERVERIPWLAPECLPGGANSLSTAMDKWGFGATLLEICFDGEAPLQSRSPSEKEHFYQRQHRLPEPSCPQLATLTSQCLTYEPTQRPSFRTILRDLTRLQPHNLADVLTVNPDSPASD
Experimental: Binding constants for compounds of the present invention against the JH2 domain were determined by the following protocol for a KINOMEscan® assay (DiscoveRx). A fusion protein of a partial length construct of human TYK2 (JH2domain-pseudokinase) (amino acids G556 to D888 based on reference sequence NP_003322.3) and the DNA binding domain of NFkB was expressed in transiently transfected HEK293 cells. From these HEK 293 cells, extracts were prepared in M-PER extraction buffer (Pierce) in the presence of Protease Inhibitor Cocktail Complete (Roche) and Phosphatase Inhibitor Cocktail Set II (Merck) per manufacturers' instructions. The TYK2(JH2domain-pseudokinase) fusion protein was labeled with a chimeric double-stranded DNA tag containing the NFkB binding site (5′-GGGAATTCCC-3′) fused to an amplicon for qPCR readout, which was added directly to the expression extract (the final concentration of DNA-tag in the binding reaction is 0.1 nM).
Streptavidin-coated magnetic beads (Dynal M280) were treated with a biotinylated small molecule ligand for 30 minutes at room temperature to generate affinity resins for the binding assays. The liganded beads were blocked with excess biotin and washed with blocking buffer (SeaBlock (Pierce), 1% BSA, 0.05% Tween 20, 1 mM DTT) to remove unbound ligand and to reduce nonspecific binding.
The binding reaction was assembled by combining 16 μl of DNA-tagged kinase extract, 3.8 μl liganded affinity beads, and 0.18 μl test compound (PBS/0.05% Tween 20/10 mM DTT/0.1% BSA/2 μg/ml sonicated salmon sperm DNA). Extracts were used directly in binding assays without any enzyme purification steps at a ≥10,000-fold overall stock dilution (final DNA-tagged enzyme concentration <0.1 nM). Extracts were loaded with DNA-tag and diluted into the binding reaction in a two step process. First extracts were diluted 1:100 in 1× binding buffer (PBS/0.05% Tween 20/10 mM DTT/0.1% BSA/2 μg/ml sonicated salmon sperm DNA) containing 10 nM DNA-tag. This dilution was allowed to equilibrate at room temperature for 15 minutes and then subsequently diluted 1:100 in 1× binding buffer. All reactions were performed in polypropylene 384-well plates. Each was a final volume of 0.02 mL. Assays were incubated with shaking for 1 hour at room temperature. Then the beads were pelleted and washed with wash buffer (1×PBS, 0.05% Tween 20) to remove displaced kinase and test compound. The washed based were re-suspended in elution buffer (1×PBS, 0.05% Tween 20, 0.5 μM non-biotinylated affinity ligand) and incubated at room temperature with shaking for 30 minutes. The kinase concentration in the eluates was measured by qPCR. qPCR reactions were assembled by adding 2.5 μL of kinase eluate to 7.5 μL of qPCR master mix containing 0.15 μM amplicon primers and 0.15 μM amplicon probe. The qPCR protocol consisted of a 10 minute hot start at 95° C., followed by 35 cycles of 95° C. for 15 seconds, 60° C. for 1 minute.
Test compounds were prepared as 111× stocks in 100% DMSO. Kd values were determined using an 11-point 3-fold compound dilution series with three DMSO control points. All compounds for Kd measurements are distributed by acoustic transfer (non-contact dispensing) in 100% DMSO. The compounds were then diluted directly into the assays such that the final concentration of DMSO was 0.9%. The Kd values were determined using a compound top concentration of 30,000 nM. Kd measurements were performed in duplicate.
Binding constants (Kds) were calculated with a standard dose-response curve using the Hill equation: […]
The Hill Slope was set to −1. Curves were fitted using a non-linear least square fit with the Levenberg-Marquardt algorithm (Levenberg, K., A method for the solution of certain non-linear problems in least squares, Q. Appl. Math. 2, 164-168 (1944)).

JAK2 kinase domain (JH1), sequence (O60674 849-1124): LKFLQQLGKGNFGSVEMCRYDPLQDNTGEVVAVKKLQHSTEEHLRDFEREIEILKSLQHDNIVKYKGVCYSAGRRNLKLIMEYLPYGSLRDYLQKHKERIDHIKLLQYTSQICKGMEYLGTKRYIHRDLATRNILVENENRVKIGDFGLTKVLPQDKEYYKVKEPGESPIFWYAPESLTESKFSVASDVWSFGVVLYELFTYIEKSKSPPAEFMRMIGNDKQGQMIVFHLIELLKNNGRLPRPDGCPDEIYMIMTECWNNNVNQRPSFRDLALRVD

Structure (SMILES) | inhibition at 10 µM (JAK2 kinase domain (JH1)) [%] | inhibition at 10 µM (TYK2 kinase domain (JH1)) [%] | Kd [1] [nM]
CNC(=O)c1cnc(NC(=O)C2CC2)c2[nH]c(-c3ccc(=O)n(C4CC4)c3)cc12 [Compound I-40, 7-(cyclopropanecarboxamido)-2-(1-cyclopropyl-6-oxo-1,6-dihydropyridin-3-yl)-N-methyl-1H-pyrrolo[2,3-c]pyridine-4-carboxamide] | < 50 | < 50 | 1 to 10
CNC(=O)CCCNc1ccc(-c2cc3c(C(=O)NC)cnc(NC(=O)C4CC4)c3[nH]2)c(OC)c1 [Compound I-30, 7-(cyclopropanecarboxamido)-2-(2-methoxy-4-((4-(methylamino)-4-oxobutyl)amino)phenyl)-N-methyl-1H-pyrrolo[2,3-c]pyridine-4-carboxamide] | < 50 | < 50 | < 0.2
CNC(=O)c1cnc(NC(=O)C2CC2)c2[nH]c(-c3cccc(N4CCOCC4)c3F)cc12 [Compound I-22, 7-(cyclopropanecarboxamido)-2-(2-fluoro-3-morpholinophenyl)-N-methyl-1H-pyrrolo[2,3-c]pyridine-4-carboxamide] | < 50 | < 50 | < 0.2
[2H]C([2H])([2H])NC(=O)c1cnc(NC(=O)C2CC2)c2[nH]c(-c3cc(-c4ncn(C)n4)ccn3)cc12 [Compound I-16, 7-(cyclopropanecarboxamido)-N-(methyl-d3)-2-(4-(1-methyl-1H-1,2,4-triazol-3-yl)pyridin-2-yl)-1H-pyrrolo[2,3-c]pyridine-4-carboxamide] | < 50 | < 50 | < 0.2
CNC(=O)c1cnc(NC(=O)C2CC2)c2[nH]c(-c3ccc4ccn(C)c4c3F)cc12 [Compound I-21, 7-(cyclopropanecarboxamido)-2-(7-fluoro-1-methyl-1H-indol-6-yl)-N-methyl-1H-pyrrolo[2,3-c]pyridine-4-carboxamide] | < 50 | < 50 | < 0.2
CNC(=O)c1cnc(NC(=O)C2CC2)c2[nH]c(-c3cnccc3OC3CC3)cc12 [Compound I-44, 7-(cyclopropanecarboxamido)-2-(4-cyclopropoxypyridin-3-yl)-N-methyl-1H-pyrrolo[2,3-c]pyridine-4-carboxamide] |  |  | < 0.2
CNC(=O)c1cnc(NC(=O)C2CC2)c2[nH]c(-c3ccc(-c4ncc5n4CCCC5)cc3F)cc12 [Compound I-75, 7-(cyclopropanecarboxamido)-2-(2-fluoro-4-(5,6,7,8-tetrahydroimidazo[1,5-a]pyridin-3-yl)phenyl)-N-methyl-1H-pyrrolo[2,3-c]pyridine-4-carboxamide] |  |  | < 0.2
CNC(=O)c1cnc(NC(=O)C2CC2)c2[nH]c(-c3cccc(-c4cn5c(n4)CCC5)c3F)cc12 [Compound I-69, 7-(cyclopropanecarboxamido)-2-(3-(6,7-dihydro-5H-pyrrolo[1,2-a]imidazol-2-yl)-2-fluorophenyl)-N-methyl-1H-pyrrolo[2,3-c]pyridine-4-carboxamide] |  |  | < 0.2

Other lines, results leading:

inhibition at 10 µM (JAK2 kinase domain (JH1)) [%] | inhibition at 10 µM (TYK2 kinase domain (JH1)) [%] | Kd [1] [nM] | Structure (SMILES)
< 50 | < 50 | 0.2 to 1 | [2H]C([2H])([2H])NC(=O)c1cnc(NC(=O)C2CC2)c2[nH]c(-c3ccccc3)cc12 [Compound I-3, 7-(cyclopropanecarboxamido)-N-(methyl-d3)-2-phenyl-1H-pyrrolo[2,3-c]pyridine-4-carboxamide]
< 50 | < 50 | 1 to 10 | CCOc1ncc(-c2ccn(C)n2)cc1-c1cc2c(C(=O)NC)cnc(NC(=O)C3CC3)c2[nH]1 [Compound I-37, 7-(cyclopropanecarboxamido)-2-(2-ethoxy-5-(1-methyl-1H-pyrazol-3-yl)pyridin-3-yl)-N-methyl-1H-pyrrolo[2,3-c]pyridine-4-carboxamide]
< 50 | < 50 | 0.2 to 1 | CNC(=O)c1cnc(NC(=O)C2CC2)c2[nH]c(-c3cccc(-c4nc(C)n(C)n4)c3)cc12 [Compound I-28, 7-(cyclopropanecarboxamido)-2-(3-(1,5-dimethyl-1H-1,2,4-triazol-3-yl)phenyl)-N-methyl-1H-pyrrolo[2,3-c]pyridine-4-carboxamide]
 |  | 0.2 to 1 | CNC(=O)c1cnc(NC(=O)C2CC2)c2[nH]c(-c3cccc(-c4nnn(C)n4)c3)cc12 [Compound I-50, 7-(cyclopropanecarboxamido)-N-methyl-2-(3-(2-methyl-2H-tetrazol-5-yl)phenyl)-1H-pyrrolo[2,3-c]pyridine-4-carboxamide]
 |  | < 0.2 | CNC(=O)c1cnc(NC(=O)C2CC2)c2[nH]c(-c3ccn(-c4cnn(C)c4)n3)cc12 [Compound I-80, 7-(cyclopropanecarboxamido)-N-methyl-2-(1′-methyl-1′H-[1,4′-bipyrazol]-3-yl)-1H-pyrrolo[2,3-c]pyridine-4-carboxamide]
 |  | < 0.2 | CNC(=O)c1cnc(Nc2ccn(C)n2)c2[nH]c(-c3cccc(-c4cn5c(n4)COCC5)c3F)cc12 [Compound I-100, 2-(3-(5,6-dihydro-8H-imidazo[2,1-c][1,4]oxazin-2-yl)-2-fluorophenyl)-N-methyl-7-((1-methyl-1H-pyrazol-3-yl)amino)-1H-pyrrolo[2,3-c]pyridine-4-carboxamide]
 |  | 0.2 to 1 | CNC(=O)c1cnc(NC(=O)C2CC2)c2[nH]c(-c3ncc(C(=O)N(C)C)cc3F)cc12 [Compound I-51, 7-(cyclopropanecarboxamido)-2-(5-(dimethylcarbamoyl)-3-fluoropyridin-2-yl)-N-methyl-1H-pyrrolo[2,3-c]pyridine-4-carboxamide]
 |  | < 0.2 | CNC(=O)c1cnc(NC(=O)C2CC2)c2[nH]c(-c3cccc(-n4cnc(C)n4)c3F)cc12 [Compound I-47, 7-(cyclopropanecarboxamido)-2-(2-fluoro-3-(3-methyl-1H-1,2,4-triazol-1-yl)phenyl)-N-methyl-1H-pyrrolo[2,3-c]pyridine-4-carboxamide]
 |  | < 0.2 | CNC(=O)c1cnc(NC(=O)C2CC2)c2[nH]c(-c3ccc(-n4ncnc4C)cc3F)cc12 [Compound I-65, 7-(cyclopropanecarboxamido)-2-(2-fluoro-4-(5-methyl-1H-1,2,4-triazol-1-yl)phenyl)-N-methyl-1H-pyrrolo[2,3-c]pyridine-4-carboxamide]
 |  | < 0.2 | CNC(=O)c1cnc(NC(=O)C2CC2)c2[nH]c(-c3c(F)cc(-c4nccn4C)cc3N3CCC(F)(F)C3)cc12 [Compound I-83, 7-(cyclopropanecarboxamido)-2-(2-(3,3-difluoropyrrolidin-1-yl)-6-fluoro-4-(1-methyl-1H-imidazol-2-yl)phenyl)-N-methyl-1H-pyrrolo[2,3-c]pyridine-4-carboxamide]

Reference: patent US11053241B2, “TYK2 inhibitors and uses thereof” (Nimbus Lakshmi, Inc., priority 2018, dated 2021)
